Data as given in paper PMC8948829, “The Escherichia coli Amino Acid Uptake Protein CycA: Regulation of Its Synthesis and Practical Application in L-Isoleucine Production” (Microorganisms, 2022).

Target: T1, CycA (Escherichia coli, UniProt P0AAE0)
T1 construct: full-length native 470 aa inner-membrane permease, chromosomal cycA overexpressed from PL promoter (strain M1, MG1655 cat-PL-cycA), whole cells
T1 sequence (P0AAE0 1-470): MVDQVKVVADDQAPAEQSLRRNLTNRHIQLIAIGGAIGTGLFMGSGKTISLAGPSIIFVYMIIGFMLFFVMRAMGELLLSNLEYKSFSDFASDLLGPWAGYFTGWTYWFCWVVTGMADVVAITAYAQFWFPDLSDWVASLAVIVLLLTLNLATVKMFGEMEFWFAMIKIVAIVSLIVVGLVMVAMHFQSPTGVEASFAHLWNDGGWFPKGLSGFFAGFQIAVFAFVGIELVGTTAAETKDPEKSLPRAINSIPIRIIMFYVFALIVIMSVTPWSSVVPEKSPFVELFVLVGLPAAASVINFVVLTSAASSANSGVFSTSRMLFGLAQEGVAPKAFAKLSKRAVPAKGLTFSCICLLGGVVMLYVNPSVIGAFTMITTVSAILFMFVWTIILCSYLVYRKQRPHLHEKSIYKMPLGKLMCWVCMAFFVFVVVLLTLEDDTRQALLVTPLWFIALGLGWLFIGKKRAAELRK
Assay: amino acid uptake (extracellular depletion), cycA-overexpressing versus wild-type cells
Assay type: cell-based
Settings: 50 mM, N-free M9 medium, 37 °C, 6 h; other native importers intact

SMILES | uptake rate
CC[C@H](N)C(=O)O [AABA] | the uptake rate was higher in the case of the M1 strain, especially for Ala and AABA
C[C@H](N)C(=O)O [Ala] | the uptake rate was higher in the case of the M1 strain, especially for Ala and AABA
